Results reported in US20190077795A1, “ARGININE […] INHIBITORS AND USES THEREOF” (Epizyme, Inc., priority 2014, published 2019).
Like-named read-outs stand apart in the source and are kept apart here.

Experiments:
human PRMT8 = human PRMT8 (Homo sapiens, UniProt Q9NR22); assay: PRMT8 Biochemical Assay; settings: PRMT8 IC50 (uM), peptide substrate, 3H-SAM Flashplate assay
Source text: S-adenosylmethionine (SAM), S-adenosylhomocysteine (SAH), bicine, Tween20, dimethylsulfoxide (DMSO), bovine skin gelatin (BSG), isopropyl-3-D-thiogalactopyranoside (IPTG), and Tris(2-carboxyethyl)phosphine hydrochloride solution (TCEP) were purchased from Sigma-Aldrich at the highest level of purity possible. ^3H-SAM was purchase from American Radiolabeled Chemicals with a specific activity of 80 Ci/mmol. 384-well streptavidin Flashplates were purchased from PerkinElmer.
E. coli (BL21(DE3) Gold, Stratagene) made competent by the CaCl2 method were transformed with the PRMT8 construct and ampicillin selection. Protein over-expression was accomplished by growing the PRMT8 expressing E. coli clone and inducing expression with 0.3 mM IPTG at 16° C. The culture was grown for 12 hours, harvested by centrifugation, and stored at −80° C. for purification.
GST-tagged PRMT8 was eluted with 50 mM Tris, 2 mM glutathione, pH 7.8. Pooled fractions were cleaved by thrombin (10U) and dialysed in buffer A. GST was removed by reloading the cleaved protein sample onto glutathione sepharose column and PRMT8 was collected in the flow-through fractions. PRMT8 was purified further by ceramic hydroxyapatite chromatography. The column was washed with 50 mM phosphate buffer, 100 mM NaCl, 5% glycerol, 5 mM β-mercaptoethanol, pH 7.8 and PRMT8 was eluted by 100 mM phosphate in the same buffer. Protein was concentrated and buffer was exchanged to 50 mM Tris, 300 mM NaCl, 10% glycerol, 5 mM β-mercaptoethanol, pH 7.8 by ultrafiltration.
General Procedure for PRMT8 Enzyme Assays on Peptide Substrates.
The assays were all performed in a buffer consisting of 20 mM Bicine (pH=7.6), 1 mM TCEP, 0.005% BSG, and 0.002% Tween 20, prepared on the day of use. […] DMSO (1 ul) was added to Columns 11, 12, 23, 24, rows A-H for the maximum signal control and 1 ul of SAH, a known product and inhibitor of PRMT8, was added to columns 11, 12, 23, 24, rows I-P for the minimum signal control. A cocktail (40 ul) containing the PRMT8 enzyme was added by Multidrop Combi (Thermo-Fisher). The compounds were allowed to incubate with PRMT8 for 30 min at room temperature, then a cocktail (10 ul) containing ^3H-SAM and peptide was added to initiate the reaction (final volume=51 ul). […] The assays were stopped by the addition of non-radiolabeled SAM (10 ul) to a final concentration of 400 uM, which dilutes the ^3H-SAM to a level where its incorporation into the peptide substrate is no longer detectable. 50 ul of the reaction in the 384-well polypropylene plate was then transferred to a 384-well Flashplate and the biotinylated peptides were allowed to bind to the streptavidin surface for at least 1 hour before being washed once with 0.1% Tween20 in a Biotek ELx405 plate washer. The plates were then read in a PerkinElmer TopCount plate reader to measure the quantity of ^3H-labeled peptide bound to the Flashplate surface, measured as disintegrations per minute (dpm) or alternatively, referred to as counts per minute (cpm).

[1] = test system: mono-methyl arginine in RKO cells; assay: RKO Methylation Assay, In Cell Western (ICW); assay type: cell-based; settings: 72 hours
Source text: RKO adherent cells were purchased from ATCC (American Type Culture Collection), Manassas, Va., USA. DMEM/Glutamax medium, penicillin-streptomycin, heat inactivated fetal bovine serum, 0.05% trypsin and D-PBS were purchased from Life Technologies, Grand Island, N.Y., USA. Odyssey blocking buffer, 800CW goat anti-rabbit IgG (H+L) antibody, and Licor Odyssey infrared scanner were purchased from Licor Biosciences, Lincoln, Nebr., USA. Mono-methyl arginine antibody was purchased from Cell Signaling Technology, Danvers, Mass., USA. Methanol was purchased from VWR, Franklin, Mass., USA. 10% Tween 20 was purchased from KPL, Inc., Gaithersburg, Md., USA. DRAQ5 was purchased from Biostatus Limited, Leicestershire, UK.
RKO adherent cells were maintained in growth medium (DMEM/Glutamax medium supplemented with 10% v/v heat inactivated fetal bovine serum and 100 units/mL penicillin-streptomycin) and cultured at 37° C. under 5% CO2.
Cell treatment, In Cell Western (ICW) for detection of mono-methyl arginine and DNA content.
Compound (100 nL) from a 96-well source plate was added directly to 384 well cell plate. Plates were incubated at 37° C., 5% CO2 for 72 hours. After three days of incubation, plates were brought to room temperature outside of the incubator for ten minutes and blotted on paper towels to remove cell media. 50 μL of ice cold 100% methanol was added directly to each well and incubated for 30 min at room temperature. After 30 min, plates were transferred to a Biotek EL406 plate washer and washed 2 times with 100 μL per well of wash buffer (1×PBS). Next 60 μL per well of Odyssey blocking buffer (Odyssey Buffer with 0.1% Tween 20 (v/v)) were added to each plate and incubated 1 hour at room temperature. Blocking buffer was removed and 20 μL per well of primary antibody was added (mono-methyl arginine diluted 1:200 in Odyssey buffer with 0.1% Tween 20 (v/v)) and plates were incubated overnight (16 hours) at 4° C. Plates were washed 5 times with 100 μL per well of wash buffer. […] The plates were washed 5 times with 100 μL per well wash buffer then 2 times with 100 μL per well of water. Plates were allowed to dry at room temperature then imaged on the Licor Odyssey machine which measures integrated intensity at 700 nm and 800 nm wavelengths. Both 700 and 800 channels were scanned.
First, the ratio for each well was determined by:
Each plate included fourteen control wells of DMSO only treatment (minimum activation) as well as fourteen control wells for maximum activation treated with 20 μM of a reference compound. The average of the ratio values for each control type was calculated and used to determine the percent activation for each test well in the plate. Reference compound was serially diluted three-fold in DMSO for a total of nine test concentrations, beginning at 20 μM. Percent activation was determined and EC30 curves were generated using triplicate wells per concentration of compound.

human PRMT1 = biological target: T1, human PRMT1 (Homo sapiens, UniProt Q99873); assay: PRMT1 Biochemical Assay; settings: peptide substrate, 3H-SAM Flashplate assay; read-out: PRMT1 IC50
T1 construct: GST-tagged PRMT1; made in house; host or cells: High Five insect cells (baculovirus, pFastBac1)
Source text: (§1) S-adenosylmethionine (SAM), S-adenosylhomocysteine (SAH), bicine, Tween20, dimethylsulfoxide (DMSO), bovine skin gelatin (BSG), and Tris(2-carboxyethyl)phosphine hydrochloride solution (TCEP) were purchased from Sigma-Aldrich at the highest level of purity possible. ^3H-SAM was purchase from American Radiolabeled Chemicals with a specific activity of 80 Ci/mmol. 384-well streptavidin Flashplates were purchased from PerkinElmer.
Recombinant baculovirus were generated according to Bac-to-Bac kit instructions (Life Technologies). […] Infections were carried out at 27° C. for 48 hours, harvested by centrifugation, and stored at −80° C. for purification.
GST-tagged PRMT1 was eluted with 50 mM Tris, 2 mM glutathione, pH 7.8, dialysed in buffer A and concentrated to 1 mg/mL.
General Procedure for PRMT1 Enzyme Assays on Peptide Substrates.
(§2) The assays were all performed in a buffer consisting of 20 mM Bicine (pH=7.6), 1 mM TCEP, 0.005% BSG, and 0.002% Tween 20, prepared on the day of use. […] DMSO (1 ul) was added to Columns 11, 12, 23, 24, rows A-H for the maximum signal control and 1 ul of SAH, a known product and inhibitor of PRMT1, was added to columns 11, 12, 23, 24, rows I-P for the minimum signal control. A cocktail (40 ul) containing the PRMT1 enzyme was added by Multidrop Combi (Thermo-Fisher). The compounds were allowed to incubate with PRMT1 for 30 min at room temperature, then a cocktail (10 ul) containing SAM and peptide was added to initiate the reaction (final volume=51 ul). […] The assays were stopped by the addition of non-radiolabeled SAM (10 ul) to a final concentration of 300 uM, which dilutes the ^3H-SAM to a level where its incorporation into the peptide substrate is no longer detectable. 50 ul of the reaction in the 384-well polypropylene plate was then transferred to a 384-well Flashplate and the biotinylated peptides were allowed to bind to the streptavidin surface for at least 1 hour before being washed once with 0.1% Tween20 in a Biotek ELx405 plate washer. The plates were then read in a PerkinElmer TopCount plate reader to measure the quantity of ^3H-labeled peptide bound to the Flashplate surface, measured as disintegrations per minute (dpm) or alternatively, referred to as counts per minute (cpm).
(§3) Where dpm=disintegrations per minute, cmpd=signal in assay well, and min and max are the respective minimum and maximum signal controls.
(§4) Where top and bottom are the normally allowed to float, but may be fixed at 100 or 0 respectively in a 3-parameter fit. The Hill Coefficient normally allowed to float but may also be fixed at 1 in a 3-parameter fit. Y is the % inhibition and X is the compound concentration.

human PRMT6 = biological target: T2, human PRMT6 (Homo sapiens, UniProt Q96LA8); assay: PRMT6 Biochemical Assay
T2 construct: Flag-PRMT6-His; made in house; host or cells: HEK 293F cells (BacMam baculovirus, pFastBacMam)
Source text: as §1, with “(BSG), sodium butyrate” for “(BSG),”
Peptide representative of human histone H4 residues 36-50 was synthesized with an N-terminal linker-affinity tag motif and a C-terminal amide cap by 21st Century Biochemicals.
The amplified gene was subcloned into pFastBacMam (Viva Biotech).
Recombinant baculovirus were generated according to Bac-to-Bac kit instructions (Life Technologies). […] Infections were carried out at 37° C. for 48 hours, harvested by centrifugation, and stored at −80° C. for purification.
Column was washed with 20 mM imidazole in the same buffer and Flag-PRMT6-His was eluted with 150 mM imidazole. Pooled fractions were dialysed against buffer Ni-A and further purified by anti-flag M2 affinity chromatography. Flag-PRMT6-His was eluted with 200 ug/ml FLAG peptide in the same buffer. Pooled fractions were dialysed in 20 mM Tris, 150 mM NaCl, 10% glycerol and 5 mM β-mercaptoethanol, pH 7.8.
General Procedure for PRMT6 Enzyme Assays on Peptide Substrates.
as §2, with “PRMT6,” for “PRMT1,”, “PRMT6” for “PRMT1”, “400” for “300”
as §3, §4

[2] = peptide substrate, 3H-SAM Flashplate assay, read-out: PRMT6 IC50

human PRMT8, sequence (Q9NR22 whole entry): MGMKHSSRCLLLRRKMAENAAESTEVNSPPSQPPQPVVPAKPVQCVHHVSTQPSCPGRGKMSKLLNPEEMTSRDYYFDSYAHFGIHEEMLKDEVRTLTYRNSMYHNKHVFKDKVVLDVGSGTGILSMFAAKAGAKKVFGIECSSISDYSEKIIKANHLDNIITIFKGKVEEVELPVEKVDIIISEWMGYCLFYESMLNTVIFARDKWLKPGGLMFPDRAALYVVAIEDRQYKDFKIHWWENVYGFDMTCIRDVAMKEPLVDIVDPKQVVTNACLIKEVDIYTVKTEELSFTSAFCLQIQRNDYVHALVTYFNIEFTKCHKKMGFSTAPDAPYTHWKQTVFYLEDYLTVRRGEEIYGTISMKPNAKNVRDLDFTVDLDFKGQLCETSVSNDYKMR
T1 sequence (Q99873 with tags, fused parts or gaps): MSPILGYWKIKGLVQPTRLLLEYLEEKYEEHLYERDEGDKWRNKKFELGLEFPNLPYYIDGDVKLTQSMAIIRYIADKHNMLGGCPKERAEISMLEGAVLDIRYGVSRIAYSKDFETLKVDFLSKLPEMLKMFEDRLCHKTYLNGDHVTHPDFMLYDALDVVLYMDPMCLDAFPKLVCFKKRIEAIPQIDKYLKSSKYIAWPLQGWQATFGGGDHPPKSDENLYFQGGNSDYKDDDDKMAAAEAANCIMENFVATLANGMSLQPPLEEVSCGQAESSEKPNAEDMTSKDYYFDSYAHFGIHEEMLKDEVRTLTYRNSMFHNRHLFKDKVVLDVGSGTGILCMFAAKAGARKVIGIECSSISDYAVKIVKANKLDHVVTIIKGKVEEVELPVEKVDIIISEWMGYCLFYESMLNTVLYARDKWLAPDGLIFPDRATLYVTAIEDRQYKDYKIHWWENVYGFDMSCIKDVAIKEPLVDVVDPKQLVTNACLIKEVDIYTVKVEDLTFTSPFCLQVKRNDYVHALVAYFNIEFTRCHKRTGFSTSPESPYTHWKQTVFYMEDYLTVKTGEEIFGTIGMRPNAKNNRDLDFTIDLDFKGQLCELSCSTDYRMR
T2 sequence (Q96LA8 with tags, fused parts or gaps): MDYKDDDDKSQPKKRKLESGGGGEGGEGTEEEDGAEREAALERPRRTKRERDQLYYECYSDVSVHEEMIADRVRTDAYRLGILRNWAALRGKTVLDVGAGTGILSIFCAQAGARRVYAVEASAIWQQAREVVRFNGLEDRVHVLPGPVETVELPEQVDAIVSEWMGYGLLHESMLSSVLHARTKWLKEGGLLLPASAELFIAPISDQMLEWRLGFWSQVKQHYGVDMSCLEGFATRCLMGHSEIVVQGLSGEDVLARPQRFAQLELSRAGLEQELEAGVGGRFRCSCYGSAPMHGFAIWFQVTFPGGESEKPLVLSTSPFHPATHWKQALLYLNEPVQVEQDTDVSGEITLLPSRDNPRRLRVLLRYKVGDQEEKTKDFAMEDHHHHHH

SMILES | IC50 (human PRMT8) | ICW EC30 [1] | IC50 (human PRMT1) | IC50 (human PRMT6; [2]) | IC50 (human PRMT6; PRMT6 IC50 (uM))
CNCCN(C)Cc1c[nH]nc1-c1cc(F)c(Cl)c(C(F)(F)F)c1 [Compound 27] | 0.037 µM | 377 nM | 6.75 nM | 0.0214 µM | –
CNCCN(C)Cc1c[nH]nc1-c1ccc(OCCOc2ccc(C(F)(F)F)cc2)cc1 [Compound 138] | 0.0366 µM | 327.8 nM | 6.08 nM | 0.00977 µM | –
CNCCN(C)Cc1c[nH]nc1-c1cc(F)c(OCC2CC2)c(C(F)(F)F)c1 [Compound 3] | 0.0219 µM | 664 nM | 3.98 nM | 0.0195 µM | –
CCOCC(C)(C)c1cc(OCCOC)cc(-c2n[nH]cc2CN(C)CCNC)c1 [Compound 122] | 0.371 µM | 6626 nM | 43 nM | > 10 µM | –
CNCCN(C)Cc1c[nH]nc1-c1cnc(OCCCOC)c(C(F)(F)F)c1 [Compound 82] | 0.189 µM | 4060 nM | 20.3 nM | 0.0777 µM | –
CNCCN(C)Cc1c[nH]nc1-c1ccc(OCCCOC)c(OC2CCOCC2)c1 [Compound 64] | 0.249 µM | 4628 nM | 13.9 nM | 0.0535 µM | –
CNCCN(C)Cc1c[nH]nc1-c1ccc(OC(C)C)nc1 [Compound 83] | 0.0337 µM | 200 nM | 20.5 nM | 0.069 µM | –
CNCCN(C)Cc1c[nH]nc1-c1ccc(N2CCCCC2)nc1 [Compound 66] | 0.0371 µM | 393.1 nM | 14.2 nM | 0.0408 µM | –
CNCCN(C)Cc1c[nH]nc1-c1cc(Cl)c(OCC(C)C)c(Cl)c1 [Compound 1] | 0.0173 µM | 380 nM | 3.51 nM | – | 0.0104 µM
CNCCN(C)Cc1c[nH]nc1-c1ccc(N(C)CC(C)C)cc1 [Compound 102] | 0.0819 µM | 1057 nM | 31.9 nM | – | 0.236 µM
CNCCN(C)Cc1c[nH]nc1-c1ccc(OCCOc2ccc(Oc3ccccc3)cc2)cc1 [Compound 6] | 0.0192 µM | 328.2 nM | 4.79 nM | 0.00343 µM | –
CNCCN(C)Cc1c[nH]nc1-c1ccc(N(C)CCCOc2ccc(OC)cc2)cc1 [Compound 10] | 0.0124 µM | 176.2 nM | 5.21 nM | 0.00825 µM | –
CNCCN(C)Cc1c[nH]nc1-c1ccc(OCCOc2cccc(OCCC(O)CO)c2)cc1 (stereo not drawn) [Compound 31] | 0.02 µM | 2325.4 nM | 7.08 nM | 0.00432 µM | –
CNCCN(C)Cc1c[nH]nc1-c1cc(OCCOC)cc(C(F)F)c1 [Compound 24] | 0.132 µM | 1251 nM | 6.5 nM | 0.212 µM | –
CCC(CC)Oc1ccc(-n2nccc2CN(C)CCNC)cc1 [Compound 18] | 0.0153 µM | 91.46 nM | 5.86 nM | – | 0.0678 µM
CNCCN(C)Cc1c[nH]nc1-c1ccc(OCCOc2ccccc2)cc1 [Compound 61] | 0.0374 µM | 130 nM | 12.9 nM | 0.0114 µM | –
CNCCN(C)Cc1c[nH]nc1[C@H]1CC[C@@H](OCCOc2ccc(OCCOC)cc2)CC1 [Compound 34] | 0.0135 µM | 80.13 nM | 7.37 nM | 0.0267 µM | –
CNCCN(C)Cc1c[nH]nc1-c1ccc(OCCOc2ccc(N3CCOCC3)cc2)cc1 [Compound 36] | 0.0244 µM | 127.1 nM | 7.64 nM | 0.00635 µM | –
CNCCN(C)Cc1c[nH]nc1-c1ccc(OC2CC(OCCN3CCOCC3)C2)cc1 (stereo not drawn) [Compound 147] | 0.162 µM | 4237 nM | 111 nM | 0.0164 µM | –
CNCCN(C)Cc1cnn(C)c1-c1cccc(OC2CC2)c1 [Compound 126] | 0.0446 µM | 1272 nM | 45.5 nM | 0.0737 µM | –
CNCCN(C)Cc1c[nH]nc1-c1ccc(OCCOc2ccc(C3CCOCC3)cc2)cc1 [Compound 11] | 0.0133 µM | 113.8 nM | 5.23 nM | 0.00403 µM | –
